Data taken from patent publication US20240270762A1, “PENICILLIN-BINDING PROTEIN INHIBITORS” (priority 2021, published 2024).
In brackets after ≈: the same amount, converted by molar mass.

Columns and labels:
[1] = biological target: T1, PBP3 from Pseudomonas aeruginosa (PAO1) (Pseudomonas aeruginosa, UniProt G3XD46); test: Bocillin-FL fluorescence polarization competition binding, P. aeruginosa PBP3; details: Binding affinity to P. aeruginosa PBP3; fluorescence polarization competition binding assay using Bocillin-FL; read-out: P. aeruginosa PBP3 Potency
T1 construct: made in house
T1 sequence (G3XD46 whole entry): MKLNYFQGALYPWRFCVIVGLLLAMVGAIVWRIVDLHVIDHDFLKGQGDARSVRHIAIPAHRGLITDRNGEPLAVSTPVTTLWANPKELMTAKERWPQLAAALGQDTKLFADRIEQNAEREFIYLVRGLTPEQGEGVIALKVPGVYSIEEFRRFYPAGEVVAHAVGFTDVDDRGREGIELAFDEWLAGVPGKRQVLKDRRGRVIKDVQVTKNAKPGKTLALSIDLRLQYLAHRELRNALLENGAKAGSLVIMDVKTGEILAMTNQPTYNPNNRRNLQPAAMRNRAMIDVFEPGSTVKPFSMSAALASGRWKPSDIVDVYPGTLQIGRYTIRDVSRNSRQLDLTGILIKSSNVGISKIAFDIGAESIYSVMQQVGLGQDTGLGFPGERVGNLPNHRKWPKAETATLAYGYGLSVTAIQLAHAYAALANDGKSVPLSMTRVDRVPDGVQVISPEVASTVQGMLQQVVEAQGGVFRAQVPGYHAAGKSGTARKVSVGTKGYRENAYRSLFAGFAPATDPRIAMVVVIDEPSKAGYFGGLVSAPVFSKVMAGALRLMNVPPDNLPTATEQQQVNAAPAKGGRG
Summary of the method: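 Purified PBPs pre-incubated with inhibitor (E. coli PBP3 1.5 μM, 30 min; P. aeruginosa PBP3 0.75 μM, A. baumannii PBP1a 1 μM and PBP3 0.2 μM, 15 min), then Bocillin-FL 0.1 μM (0.05 μM for PBP1a) added; FP read up to 60 min. EC50 = concentration halving bound Bocillin-FL.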

[2] = test system: P. aeruginosa CDC-0054; test: microbe, parasite or virus in culture; format: cell-based; details: Pseudomonas aeruginosa, CDC0054, read-out: Minimum inhibitory concentration, P. aeruginosa CDC-0054
[3] = test system: A. baumannii CDC-0083; test: microbe, parasite or virus in culture; format: cell-based; details: Acinetobacter baumannii, CDC0083, read-out: MIC, A. baumannii CDC-0083
[4] = test system: P. aeruginosa CDC-0110; test: microbe, parasite or virus in culture; format: cell-based; details: Pseudomonas aeruginosa, CDC0110, read-out: Minimum inhibitory concentration, P. aeruginosa CDC-0110
[5] = biological target: T2, A. baumannii PBP1a (Acinetobacter baumannii, UniProt A0ABX6CK30); test: Bocillin-FL competition binding via gel filtration, A. baumannii PBP1a; details: competition binding assay using Bocillin-FL via gel filtration; read-out: A. baumannii PBP1a Potency
T2 sequence (A0ABX6CK30 1-851): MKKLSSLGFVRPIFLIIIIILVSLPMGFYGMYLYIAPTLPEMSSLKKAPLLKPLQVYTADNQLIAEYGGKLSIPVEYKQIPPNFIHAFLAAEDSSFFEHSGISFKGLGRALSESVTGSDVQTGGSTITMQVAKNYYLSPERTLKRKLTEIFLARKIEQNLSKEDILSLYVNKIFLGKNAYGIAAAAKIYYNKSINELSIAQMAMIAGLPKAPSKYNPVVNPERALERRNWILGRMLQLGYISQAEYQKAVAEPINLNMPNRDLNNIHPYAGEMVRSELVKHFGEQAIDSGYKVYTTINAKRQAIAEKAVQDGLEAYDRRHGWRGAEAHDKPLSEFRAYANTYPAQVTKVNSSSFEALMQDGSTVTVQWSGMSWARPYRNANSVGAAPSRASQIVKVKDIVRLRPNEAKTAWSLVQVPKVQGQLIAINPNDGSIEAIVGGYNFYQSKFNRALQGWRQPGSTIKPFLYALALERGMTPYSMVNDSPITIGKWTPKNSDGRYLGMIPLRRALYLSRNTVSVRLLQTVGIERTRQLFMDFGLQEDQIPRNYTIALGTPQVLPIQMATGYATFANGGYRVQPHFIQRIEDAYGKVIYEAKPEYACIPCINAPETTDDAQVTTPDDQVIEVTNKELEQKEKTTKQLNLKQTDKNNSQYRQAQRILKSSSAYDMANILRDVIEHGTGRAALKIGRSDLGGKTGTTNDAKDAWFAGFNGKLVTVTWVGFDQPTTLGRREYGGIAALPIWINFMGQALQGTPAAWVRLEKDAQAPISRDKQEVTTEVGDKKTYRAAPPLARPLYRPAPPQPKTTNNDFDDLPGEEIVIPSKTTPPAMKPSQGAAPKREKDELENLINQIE
Summary of the method: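 Enzyme was pre-incubated with rising inhibitor concentrations, then Bocillin-FL was added and incubated 15 minutes more. Bound probe was separated by gel filtration and fluorescence read. EC50 came from fitting fraction of PBP labelled versus inhibitor concentration to a Hill equation with ymin, ymax and n.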

Row | Compound | IC50 [1] [µM] | MIC [2] [µg/mL] | MIC [3] [µg/mL] | MIC [4] [µg/mL] | EC50 [5] [µM]
1 | CS(=O)(=O)N1CCN(C(=O)N[C@H](C(=O)N[C@H]2Cc3cccc(C(=O)O)c3OB2O)c2ccc(P(=O)(O)O)cc2)C1=O (single isomer, unassigned) [Example 5] | 10 to 50 |  |  |  | 
2 | CS(=O)(=O)N1CCN(C(=O)N[C@@H](C(=O)N[C@H]2Cc3cccc(C(=O)O)c3OB2O)c2ccc(P(=O)(O)O)cc2)C1=O (single isomer, unassigned) [Example 6] | < 10 | > 128 | > 128 | 32 to 64 (≈ 52.4 to 105 µM) | 
3 | O=C(O)c1c(F)ccc2c1OB(O)[C@@H](NC(=O)[C@@H](NC(=O)N1CCN(C3CCN(C(=O)Nc4ccc(O)cc4)CC3)C1=O)c1cc(F)c(O)c(O)c1Cl)C2 (single isomer, unassigned) [Example 467] | < 10 | 2 to 4 (≈ 2.59 to 5.18 µM) |  | < 1 | < 10
4 | O=C(O)c1c(F)ccc2c1OB(O)[C@@H](NC(=O)[C@H](NC(=O)N1CCN(C3CCN(C(=O)Nc4ccc(O)cc4)CC3)C1=O)c1cc(F)c(O)c(O)c1Cl)C2 (single isomer, unassigned) [Example 468] | < 10 | < 1 |  | < 1 | < 10
5 | O=C(NCCCN1CCN(C(=O)N[C@H](C(=O)N[C@H]2Cc3ccc(F)c(C(=O)O)c3OB2O)c2cc(F)c(O)c(O)c2Cl)C(=O)C1=O)c1ccc(O)cc1Cl (single isomer, unassigned) [Example 470] | 10 to 50 | < 1 | > 128 | 8 to 16 (≈ 10.1 to 20.1 µM) | 
6 | O=C(NCCCN1CCN(C(=O)N[C@H](C(=O)N[C@H]2Cc3ccc(F)c(C(=O)O)c3OB2O)c2cc(F)c(O)c(O)c2Cl)C(=O)C1=O)c1cc(F)c(O)cc1F (single isomer, unassigned) [Example 472] | 10 to 50 | < 1 | > 128 | < 1 | 
7 | CCN1CCN(C(=O)NC(C(=O)N[C@H]2Cc3cccc(C(=O)O)c3OB2O)c2ccc(P(=O)(O)O)cc2F)C(=O)C1=O (stereo partly drawn) [Example 1, (3R)-3-(2-(4-ethyl-2,3-dioxopiperazine-1-carboxamido)-2-(2-fluoro-4-phosphonophenyl)acetamido)-2-hydroxy-3,4-dihydro-2H-benzo[e][1,2]oxaborinine-8-carboxylic acid] | < 10 |  |  |  | 
8 | CCN1CCN(C(=O)NC(C(=O)N[C@H]2Cc3cccc(C(=O)O)c3OB2O)c2cc(P(=O)(O)O)ccc2F)C(=O)C1=O (stereo partly drawn) [Example 2, (3R)-3-(2-(4-ethyl-2,3-dioxopiperazine-1-carboxamido)-2-(2-fluoro-5-phosphonophenyl)acetamido)-2-hydroxy-3,4-dihydro-2H-benzo[e][1,2]oxaborinine-8-carboxylic acid] | < 10 |  |  |  | 
9 | NCCN1CCN(C(=O)NC(C(=O)N[C@H]2Cc3cccc(C(=O)O)c3OB2O)c2ccc(P(=O)(O)O)cc2)C(=O)C1=O (stereo partly drawn) [Example 3, (3R)-3-(2-(4-(2-aminoethyl)-2,3-dioxopiperazine-1-carboxamido)-2-(4-phosphonophenyl)acetamido)-2-hydroxy-3,4-dihydro-2H-benzo[e][1,2]oxaborinine-8-carboxylic acid] | 10 to 50 |  |  |  | 
10 | O=C(O)c1cccc2c1OB(O)[C@@H](NC(=O)C(NC(=O)N1CCN(CC(F)(F)F)C(=O)C1=O)c1ccc(P(=O)(O)O)cc1)C2 (stereo partly drawn) [Example 4, (3R)-3-(2-(2,3-dioxo-4-(2,2,2-trifluoroethyl)piperazine-1-carboxamido)-2-(4-phosphonophenyl)acetamido)-2-hydroxy-3,4-dihydro-2H-benzo[e][1,2]oxaborinine-8-carboxylic acid] | < 10 |  |  |  | 
11 | O=C(NCCCN1CCN(C(=O)NC(C(=O)N[C@H]2Cc3ccc(F)c(C(=O)O)c3OB2O)c2cc(F)c(O)c(O)c2Cl)C1=O)c1cccnc1 (stereo partly drawn) [Example 281, (3R)-3-(2-(2-chloro-5-fluoro-3,4-dihydroxyphenyl)-2-(3-(3-(nicotinamido)propyl)-2-oxoimidazolidine-1-carboxamido)acetamido)-7-fluoro-2-hydroxy-3,4-dihydro-2H-benzo[e][1,2]oxaborinine-8-carboxylic acid] | < 10 | 8 to 16 (≈ 11.2 to 22.3 µM) | 8 to 16 (≈ 11.2 to 22.3 µM) | 2 to 4 (≈ 2.79 to 5.58 µM) | 
12 | O=C(O)c1c(F)ccc2c1OB(O)[C@@H](NC(=O)C(NC(=O)N1CCN(C3CCN(C(=O)c4ccc(O)cc4)CC3)C(=O)C1=O)c1cc(F)c(O)c(O)c1Cl)C2 (stereo partly drawn) [Example 427, (3R)-3-(2-(2-chloro-5-fluoro-3,4-dihydroxyphenyl)-2-(4-(1-(4-hydroxybenzoyl)piperidin-4-yl)-2,3-dioxopiperazine-1-carboxamido)acetamido)-7-fluoro-2-hydroxy-3,4-dihydro-2H-benzo[e][1,2]oxaborinine-8-carboxylic acid] | < 10 | 2 to 4 (≈ 2.54 to 5.09 µM) |  | < 1 | < 10
13 | O=C(O)c1c(F)ccc2c1OB(O)[C@@H](NC(=O)C(NC(=O)N1CCN(C3CCN(C(=O)Cc4cccc(O)c4)CC3)C(=O)C1=O)c1cc(F)c(O)c(O)c1Cl)C2 (stereo partly drawn) [Example 474, (3R)-3-(2-(2-chloro-5-fluoro-3,4-dihydroxyphenyl)-2-(4-(1-(2-(3-hydroxyphenyl)acetyl)piperidin-4-yl)-2,3-dioxopiperazine-1-carboxamido)acetamido)-7-fluoro-2-hydroxy-3,4-dihydro-2H-benzo[e][1,2]oxaborinine-8-carboxylic acid] | < 10 | < 1 |  | < 1 | 10 to 50
14 | O=C(O)c1c(F)ccc2c1OB(O)[C@@H](NC(=O)C(NC(=O)N1CCN(CC3CCN(C(=O)c4cccc(O)c4)CC3)C(=O)C1=O)c1cc(F)c(O)c(O)c1Cl)C2 (stereo partly drawn) [Example 475, (3R)-3-(2-(2-chloro-5-fluoro-3,4-dihydroxyphenyl)-2-(4-((1-(3-hydroxybenzoyl)piperidin-4-yl)methyl)-2,3-dioxopiperazine-1-carboxamido)acetamido)-7-fluoro-2-hydroxy-3,4-dihydro-2H-benzo[e][1,2]oxaborinine-8-carboxylic acid] | < 10 | < 1 |  | < 1 | 10 to 50
15 | O=C(O)c1c(F)ccc2c1OB(O)[C@@H](NC(=O)C(NC(=O)N1CCN(C3CCN(C(=O)c4ccc(O)cc4O)CC3)C(=O)C1=O)c1cc(F)c(O)c(O)c1Cl)C2 (stereo partly drawn) [Example 476, (3R)-3-(2-(2-chloro-5-fluoro-3,4-dihydroxyphenyl)-2-(4-(1-(2,4-dihydroxybenzoyl)piperidin-4-yl)-2,3-dioxopiperazine-1-carboxamido)acetamido)-7-fluoro-2-hydroxy-3,4-dihydro-2H-benzo[e][1,2]oxaborinine-8-carboxylic acid] | < 10 | < 1 |  | < 1 | 10 to 50
16 | O=C(O)c1c(F)ccc2c1OB(O)[C@@H](NC(=O)C(NC(=O)N1CCN(CC3CCN(C(=O)Nc4cccc(O)c4)CC3)C(=O)C1=O)c1cc(F)c(O)c(O)c1Cl)C2 (stereo partly drawn) [Example 477, (3R)-3-(2-(2-chloro-5-fluoro-3,4-dihydroxyphenyl)-2-(4-((1-((3-hydroxyphenyl)carbamoyl)piperidin-4-yl)methyl)-2,3-dioxopiperazine-1-carboxamido)acetamido)-7-fluoro-2-hydroxy-3,4-dihydro-2H-benzo[e][1,2]oxaborinine-8-carboxylic acid] | < 10 | < 1 |  | < 1 | 10 to 50
17 | O=C(O)c1c(F)ccc2c1OB(O)[C@@H](NC(=O)C(NC(=O)N1CCN(C3CCN(C(=O)Nc4cccc(O)c4F)CC3)C(=O)C1=O)c1cc(F)c(O)c(O)c1Cl)C2 (stereo partly drawn) [Example 478, (3R)-3-(2-(2-chloro-5-fluoro-3,4-dihydroxyphenyl)-2-(4-(1-((2-fluoro-3-hydroxyphenyl)carbamoyl)piperidin-4-yl)-2,3-dioxopiperazine-1-carboxamido)acetamido)-7-fluoro-2-hydroxy-3,4-dihydro-2H-benzo[e][1,2]oxaborinine-8-carboxylic acid] | < 10 | 2 to 4 (≈ 2.44 to 4.88 µM) |  | 2 to 4 (≈ 2.44 to 4.88 µM) | 10 to 50
